In article PMC9496346, “Controversial Role of Transferrin in the Transport of Ruthenium Anticancer Drugs” (Biomolecules, 2022):

How the values were obtained:
[1] = system: protein in cell culture medium; test: Ru–protein binding in cell culture medium (gel filtration, GFAAS); format: in vitro ADME; conditions: basal medium with ~15 μM BSA, conditions B1 and B2
Protocol: An aliquot (50 µL) of cell culture medium from each well was passed through a separate Bio-Rad P6 centrifugal gel filtration column that was pre-saturated with PBS, according to manufacturer’s instructions. The eluants (50 ± 5 µL volume) contained protein-bound Ru fractions (>6 kDa molecular mass). The protein recovery, measured by Bradford assays, exceeded 95%. Another 50 µL sample of each medium was taken into separate tubes. Both the original and gel-filtered media samples were digested with 0.20 mL of 65% (v/v) HNO3 for 24 h. The digests were diluted with 0.75 mL of 0.10 M HCl, and the Ru content in the samples was determined by GFAAS. The percentage of protein binding was determined from the ratio of Ru content in the gel-filtered and original media samples [30, 31].

[2] = system: T1, recombinant human transferrin receptor 1 (TfR1); test: BLI of Tf–TfR1 binding in dilute cell culture media after uptake experiments; conditions: apoTf 30 μM + KP1019 60 μM in DMEM with ~15 μM BSA, vs same medium with apoTf only
T1 construct: extracellular domain (Cyst89-Phe760), (His)6-tagged at the N-terminus; purchased Sino Biological, Beijing, China (TfR1)
Protocol: The effects of Ru complexes on the Tf cycle were determined by BLI using previously developed protocols. The instrument used was a single-channel BLItz analyser (ForteBio, Menlo Park, CA, USA) with a tube holder (250 µL solution volume) and Ni(II)–nta coated optical probes held at 295 ± 1 K. Measurements used the Advanced Kinetics mode. […] Solutions of metal–Tf adducts (typical final Tf concentrations 150 nM or 1.0 µM) were prepared in the binding buffer (Section 2.1). The pH 7.4 binding buffer was used for Tf binding and dissociation from the probe, and the pH 5.6 buffer (Section 2.1) was used to mimic the endosomal step of the Tf cycle. Metal–Tf solutions (A1–A9 in Table 1) were diluted 100–400-fold, cell culture media were diluted 30-fold, and human serum samples were diluted 200-fold with the binding buffer immediately before the BLI measurements. All BLI data were background corrected by using data from buffer only runs with the same TfR1-loaded optical probe. Consistent BLI results were obtained in at least two independent measurements, using different probes and different batches of Tf solutions. Calculations of the Tf–TfR1 binding constants were performed using the 1:1 binding model (BLItz software, Version 1.1, Forte-Bio 2013), which can be used as a reasonable approximation of the physiological 2:2 Tf–TfR1 binding mechanism at low Tf concentrations.
(a) BLI response curves for 1.0 µM of human Tf at 295 K in dilute cell culture media after Ru uptake experiments by HepG2 cells (Section 3.2 in the main text). Media (serum-free DMEM, containing 1.0 mg mL−1 BSA as a background protein, as well as KP1019 and/or Tf, as shown in the figure legend), were collected after the end of uptake experiments, then were diluted 30-fold with buffer (20 mM HEPES + 25 mM NaHCO3 + 140 mM NaCl, pH = 7.4) and applied to TfR1-loaded BLI probe. Designations of the steps in Tf cycle (A–D) correspond to those in Figure 1d-f, main text. Calculated KD values (1:1 binding model, BLItz software) were as […]

[Cl-].[Cl-].[Cl-].[Cl-].[Ru+3].c1ccc2[nH][nH+]cc2c1.c1ccc2[nH]ncc2c1.c1ccc2[nH]ncc2c1 [KP1019, (IndH)[Ru^IIICl4(Ind)2]]
Protein-bound proportion of KP1019 decomposition products in basal medium [1]: ~ 50%
Effect on Tf–TfR1 binding in cell culture medium [2]: did not have a major effect
